Test results from patent US20070212366A1, “Use Of Mrp4-Inhibitors For The Treatment And/Or Prophylaxis Of Cardiovascular Diseases” (ERNST-MORITZ-ARNDT-UNIVERSITAT GREIFSWALD, priority 2003, published 2007).

Tests used:
MRP4 [1] = target: T1, MRP4 (Homo sapiens, UniProt O15439); experiment: Inhibition of vanadate-sensitive [3H]ADP transport in dense platelet granules (vesicle rapid filtration); type: biochemical; settings: for [^3H]ADP transport (% of control): dense platelet vesicles, [3H]ADP 1 μmol/l, 0.4 mmol/l ATP ± 1 mmol/l orthovanadate, 2 min, mean ± SD of 3; for vanadate-sensitive ADP accumulation in the dense granular fraction of the sucrose gradient: result in words, refers to Table 1
T1 construct: Dense platelet vesicles (100 μg of protein) were incubated with [3H]ADP; from tissue; host or cells: platelets (crude membrane vesicles; dense granule fraction of a sucrose gradient)
T1 sequence (O15439 1-1325): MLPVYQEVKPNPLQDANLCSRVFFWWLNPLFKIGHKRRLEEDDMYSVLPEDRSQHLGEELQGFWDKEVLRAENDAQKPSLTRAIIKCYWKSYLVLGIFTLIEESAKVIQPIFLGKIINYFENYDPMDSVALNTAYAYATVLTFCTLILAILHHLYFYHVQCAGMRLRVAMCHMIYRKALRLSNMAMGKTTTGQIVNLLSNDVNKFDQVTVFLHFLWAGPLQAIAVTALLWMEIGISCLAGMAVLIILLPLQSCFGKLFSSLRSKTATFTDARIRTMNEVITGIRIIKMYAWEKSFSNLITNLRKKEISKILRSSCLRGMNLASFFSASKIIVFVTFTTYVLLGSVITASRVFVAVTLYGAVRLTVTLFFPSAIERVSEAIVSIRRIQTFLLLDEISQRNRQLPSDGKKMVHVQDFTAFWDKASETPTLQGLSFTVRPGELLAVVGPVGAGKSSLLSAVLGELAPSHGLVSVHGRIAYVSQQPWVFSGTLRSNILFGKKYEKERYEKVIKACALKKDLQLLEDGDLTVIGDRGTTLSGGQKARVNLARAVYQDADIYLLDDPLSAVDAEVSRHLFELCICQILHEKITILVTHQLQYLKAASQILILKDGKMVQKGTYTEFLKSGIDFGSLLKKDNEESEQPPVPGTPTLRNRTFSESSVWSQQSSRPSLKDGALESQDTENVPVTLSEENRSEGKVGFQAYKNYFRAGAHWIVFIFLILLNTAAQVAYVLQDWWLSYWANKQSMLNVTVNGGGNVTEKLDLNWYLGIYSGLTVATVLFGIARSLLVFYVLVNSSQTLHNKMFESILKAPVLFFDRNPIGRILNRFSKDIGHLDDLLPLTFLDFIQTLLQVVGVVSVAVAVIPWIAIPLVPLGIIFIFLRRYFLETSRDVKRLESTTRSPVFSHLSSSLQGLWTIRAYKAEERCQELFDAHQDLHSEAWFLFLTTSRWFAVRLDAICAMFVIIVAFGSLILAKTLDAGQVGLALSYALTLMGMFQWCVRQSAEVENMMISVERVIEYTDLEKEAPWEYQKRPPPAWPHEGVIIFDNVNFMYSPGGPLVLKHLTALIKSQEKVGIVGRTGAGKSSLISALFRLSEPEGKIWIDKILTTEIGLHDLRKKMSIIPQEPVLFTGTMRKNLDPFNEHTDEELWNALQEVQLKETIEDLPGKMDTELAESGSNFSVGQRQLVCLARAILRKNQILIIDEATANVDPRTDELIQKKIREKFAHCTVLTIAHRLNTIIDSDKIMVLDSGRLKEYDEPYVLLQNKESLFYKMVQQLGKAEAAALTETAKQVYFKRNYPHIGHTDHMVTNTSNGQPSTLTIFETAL
Source text: In order to determine whether the observed difference in the [^3H]ADP uptake by the vesicles in the presence and absence of orthovanadate reflects a transmembrane movement rather than binding to the membrane surface, the influence of high osmolarity was investigated. […] In the presence of orthovanadate, 1 mol/l of sucrose only slightly influenced the [^3H]ADP association to the vesicles. […] Furthermore, the vanadate-sensitive ADP accumulation in the dense granular fraction of the sucrose gradient could be detected and was inhibited by dipyridamole, MK571 and cGMP (Table 1).
Transport of [^3H]ADP. An ATP-dependent transport of [3H]ADP (1 μmol/l) in the membrane vesicles was measured by rapid filtration, as is described for [^3H]cGMP, with the exception that the vesicles in incubation buffer supplemented with 0.4 mmol/l ATP, 10 mmol/l MgCl2 are incubated in the presence or absence of sodium orthovanadate (1 mmol/l). In order to investigate the effect of the osmolarity of the extra-vesicular medium, the vesicles were preincubated for 45 minutes at 4° C. in a 1 mol/l sucrose-containing buffer or in standard incubation buffer which contained 250 mmol/l of sucrose.
Dense platelet vesicles (100 μg of protein) were incubated with [3H]ADP (1 μmol/l) in the presence of 0.4 mmol/l of ATP or 0.4 mmol/l of ATP+1 mmol/l of orthovanadate for two minutes, and the difference in the vesicle-associated radioactivity was calculated. The compounds listed were added to the incubations with and without orthovanadate in the concentrations indicated. The difference is indicated as the percentage of the control (mean value+standard deviation of 3 determinations). The control value of the vanadate-sensitive [^3H]ADP transport in this experiment was […] of protein^−1 after 2 minutes.

MRP4 [2] = target: T1, MRP4; experiment: [3H]ADP transport in crude platelet membrane vesicles; type: biochemical; settings: ATP 0.4 mmol/l plus 1 mM orthovanadate versus ATP alone; crude membranes
Protocol: In order to determine whether ADP can be a substrate for MRP4-mediated, ATP-dependent transport, the uptake of [3H]ADP (1 μM) in platelet membrane vesicles (crude membranes) in the presence of 0.4 mmol/l of ATP was measured over a period of 2 minutes. […] If ATP was replaced by 5′-AMP or the non-hydrolyzable ATP analog AMPPNP, which was customarily used in control incubations in order to calculate the ATP-dependent component of the transport, approximately a three to four-fold higher background binding of the [^3H]ADP to the membranes was observed, which increased only slightly with time (not shown). […] In order to show the ATP dependence and simultaneously to ensure identical initial ADP concentrations, the transport was measured in the presence of ATP with or without 1 mM orthovanadate, an inhibitor of ATP hydrolysis. A time-dependent increase in the vesicle-associated radioactivity in the presence of ATP was observed, in spite of the fact that [^3H]ADP was diluted by simultaneous formation of unlabeled ADP. […]
Transport of [^3H]ADP. An ATP-dependent transport of [3H]ADP (1 μmol/l) in the membrane vesicles was measured by rapid filtration, as is described for [^3H]cGMP, with the exception that the vesicles in incubation buffer supplemented with 0.4 mmol/l ATP, 10 mmol/l MgCl2 are incubated in the presence or absence of sodium orthovanadate (1 mmol/l). […]

| [^3H]ADP transport (% of control) (MRP4 [1]; 10 μM substance) | [^3H]ADP transport (% of control) (MRP4 [1]; 100 μM substance) | vanadate-sensitive ADP accumulation in the dense granular fraction of the sucrose gradient (MRP4 [1]) | vesicle-associated radioactivity ([3H]ADP) (MRP4 [2]) | SMILES |
| --- | --- | --- | --- | --- |
| 52.7 ± 5.2 % of control | 8.8 ± 0.4 % of control | inhibited | – | OCCN(CCO)c1nc(N2CCCCC2)c2nc(N(CCO)CCO)nc(N3CCCCC3)c2n1 [Dipyridamole, dipyridamole] |
| – | 40.7 ± 3.9 % of control | inhibited | – | CN(C)C(=O)CCSC(SCCC(=O)O)c1cccc(/C=C/c2ccc3ccc(Cl)cc3n2)c1 (centres unmarked) [MK571] |
| – | 28.7 ± 2.3 % of control | inhibited | – | Nc1nc2c(ncn2[C@@H]2O[C@@H]3COP(=O)(O)O[C@H]3[C@H]2O)c(=O)[nH]1 [cGMP, cyclic GMP] |
| – | – | – | significantly reduced | [Na+].[Na+].[Na+].[O]=[V]([O-])([O-])[O-] [orthovanadate, sodium orthovanadate] |
